Data as given in ChEMBL document CHEMBL5678818, “Discovery of potent SOS1 inhibitors that block RAS activation via disruption of the RAS-SOS1 interaction” (Proc Natl Acad Sci U S A, 2019).

How the values were obtained:
[1] = molecular target: T1, Ankyrin repeat and protein kinase domain-containing protein 1 (Homo sapiens) (UniProt Q8NFD2); assay: Inhibition of ANKK1 (unknown origin) assessed as residual activity at 100 nM by KINOMEscan analysis relative to control
T1 sequence (whole entry): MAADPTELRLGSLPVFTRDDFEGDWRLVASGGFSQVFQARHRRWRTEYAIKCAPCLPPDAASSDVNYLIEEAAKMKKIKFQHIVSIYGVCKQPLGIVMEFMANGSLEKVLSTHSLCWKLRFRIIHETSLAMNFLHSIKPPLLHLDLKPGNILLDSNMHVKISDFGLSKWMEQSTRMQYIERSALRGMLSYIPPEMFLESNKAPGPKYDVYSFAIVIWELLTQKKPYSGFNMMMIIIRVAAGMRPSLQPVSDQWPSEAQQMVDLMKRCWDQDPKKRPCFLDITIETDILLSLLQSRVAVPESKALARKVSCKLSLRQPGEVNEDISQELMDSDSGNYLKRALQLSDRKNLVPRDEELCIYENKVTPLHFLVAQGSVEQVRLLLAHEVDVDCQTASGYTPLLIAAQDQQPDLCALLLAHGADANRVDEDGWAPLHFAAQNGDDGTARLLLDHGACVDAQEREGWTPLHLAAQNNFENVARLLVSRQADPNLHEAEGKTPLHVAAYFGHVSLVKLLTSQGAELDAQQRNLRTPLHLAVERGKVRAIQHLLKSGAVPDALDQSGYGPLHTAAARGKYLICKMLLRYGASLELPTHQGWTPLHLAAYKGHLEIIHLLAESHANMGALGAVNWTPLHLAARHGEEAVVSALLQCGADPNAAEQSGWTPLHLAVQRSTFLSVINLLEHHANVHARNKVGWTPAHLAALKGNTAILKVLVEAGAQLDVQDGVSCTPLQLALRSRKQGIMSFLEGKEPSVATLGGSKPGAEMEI

[2] = molecular target: Tyrosine-protein kinase Blk (Homo sapiens) (UniProt P51451); assay: Inhibition of BLK (unknown origin) assessed as residual activity at 100 nM by KINOMEscan analysis relative to control
Sequence of Tyrosine-protein kinase Blk (Homo sapiens) (P51451 2-505 limits assumed): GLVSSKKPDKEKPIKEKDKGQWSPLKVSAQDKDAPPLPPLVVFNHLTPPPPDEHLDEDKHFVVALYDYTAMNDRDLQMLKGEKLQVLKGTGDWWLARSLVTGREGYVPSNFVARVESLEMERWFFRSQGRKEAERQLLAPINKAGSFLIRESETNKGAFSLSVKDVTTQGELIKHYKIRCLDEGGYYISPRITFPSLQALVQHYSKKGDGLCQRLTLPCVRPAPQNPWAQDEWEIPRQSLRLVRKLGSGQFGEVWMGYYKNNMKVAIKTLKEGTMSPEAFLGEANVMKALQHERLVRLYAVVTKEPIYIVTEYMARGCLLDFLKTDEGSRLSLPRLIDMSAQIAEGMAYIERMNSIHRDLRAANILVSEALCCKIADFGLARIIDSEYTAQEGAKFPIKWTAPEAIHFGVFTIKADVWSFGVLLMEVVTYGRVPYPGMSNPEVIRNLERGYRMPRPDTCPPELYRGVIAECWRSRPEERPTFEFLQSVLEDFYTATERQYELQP

[3] = molecular target: T2, Serine/threonine-protein kinase Nek1 (Homo sapiens) (UniProt Q96PY6); assay: Inhibition of NEK1 (unknown origin) assessed as residual activity at 100 nM by KINOMEscan analysis relative to control
T2 sequence (whole entry): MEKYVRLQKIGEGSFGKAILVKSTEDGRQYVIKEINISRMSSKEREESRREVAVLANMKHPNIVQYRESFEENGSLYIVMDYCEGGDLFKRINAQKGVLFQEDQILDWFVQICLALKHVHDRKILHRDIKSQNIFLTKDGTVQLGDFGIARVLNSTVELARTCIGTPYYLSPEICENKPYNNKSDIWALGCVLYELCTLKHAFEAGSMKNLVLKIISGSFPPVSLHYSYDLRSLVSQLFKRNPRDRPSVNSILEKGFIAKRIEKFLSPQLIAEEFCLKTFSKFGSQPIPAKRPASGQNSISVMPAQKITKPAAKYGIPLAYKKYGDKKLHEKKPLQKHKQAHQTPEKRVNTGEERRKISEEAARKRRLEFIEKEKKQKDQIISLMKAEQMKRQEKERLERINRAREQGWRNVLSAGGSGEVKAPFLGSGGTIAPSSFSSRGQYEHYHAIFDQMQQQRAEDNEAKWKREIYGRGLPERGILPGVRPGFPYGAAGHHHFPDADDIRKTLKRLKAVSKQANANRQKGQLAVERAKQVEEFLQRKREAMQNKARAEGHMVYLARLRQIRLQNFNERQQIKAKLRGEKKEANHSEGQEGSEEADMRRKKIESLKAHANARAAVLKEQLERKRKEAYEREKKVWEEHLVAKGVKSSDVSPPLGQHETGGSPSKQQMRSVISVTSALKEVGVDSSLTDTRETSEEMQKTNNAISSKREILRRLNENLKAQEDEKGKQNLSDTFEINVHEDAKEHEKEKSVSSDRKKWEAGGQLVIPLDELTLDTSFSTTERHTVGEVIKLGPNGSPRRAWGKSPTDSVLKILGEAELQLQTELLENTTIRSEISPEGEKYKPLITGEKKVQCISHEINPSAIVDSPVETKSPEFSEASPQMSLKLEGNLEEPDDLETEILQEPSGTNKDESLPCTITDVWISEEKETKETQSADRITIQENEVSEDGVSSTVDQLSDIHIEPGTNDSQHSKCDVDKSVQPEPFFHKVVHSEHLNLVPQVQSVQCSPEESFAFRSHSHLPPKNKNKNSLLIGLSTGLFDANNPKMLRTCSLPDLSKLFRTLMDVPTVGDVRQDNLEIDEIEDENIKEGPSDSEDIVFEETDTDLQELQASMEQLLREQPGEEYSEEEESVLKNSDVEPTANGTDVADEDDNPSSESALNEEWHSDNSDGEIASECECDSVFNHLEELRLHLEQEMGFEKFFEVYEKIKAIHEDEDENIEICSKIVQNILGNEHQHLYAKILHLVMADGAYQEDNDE

[4] = molecular target: T3, Serine/threonine-protein kinase PknB (Mycobacterium tuberculosis) (UniProt P9WI81); assay: Inhibition of Mycobacterium tuberculosis PKNB assessed as residual activity at 100 nM by KINOMEscan analysis relative to control
T3 sequence (whole entry): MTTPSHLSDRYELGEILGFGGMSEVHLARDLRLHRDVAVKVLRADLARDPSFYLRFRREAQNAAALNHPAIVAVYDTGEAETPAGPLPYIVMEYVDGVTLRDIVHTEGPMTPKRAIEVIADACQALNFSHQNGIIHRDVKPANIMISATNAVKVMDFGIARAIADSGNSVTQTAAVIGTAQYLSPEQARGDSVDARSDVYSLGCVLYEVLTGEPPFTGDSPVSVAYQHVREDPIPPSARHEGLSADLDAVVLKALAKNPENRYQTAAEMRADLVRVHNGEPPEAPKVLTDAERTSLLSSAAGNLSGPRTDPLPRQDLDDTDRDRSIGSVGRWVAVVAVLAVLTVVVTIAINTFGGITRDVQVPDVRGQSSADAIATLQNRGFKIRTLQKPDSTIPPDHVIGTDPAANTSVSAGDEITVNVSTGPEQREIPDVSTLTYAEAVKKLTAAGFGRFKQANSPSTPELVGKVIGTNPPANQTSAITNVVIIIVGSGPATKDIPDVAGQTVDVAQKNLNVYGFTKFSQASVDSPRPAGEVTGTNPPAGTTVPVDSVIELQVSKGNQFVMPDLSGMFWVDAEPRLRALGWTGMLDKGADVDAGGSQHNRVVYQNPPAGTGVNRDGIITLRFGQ

[5] = molecular target: Serine/threonine-protein kinase SIK3 (Homo sapiens) (UniProt Q9Y2K2); assay: Inhibition of QSK (unknown origin) assessed as residual activity at 100 nM by KINOMEscan analysis relative to control
Sequence of Serine/threonine-protein kinase SIK3 (Homo sapiens) (Q9Y2K2 whole entry, looked up): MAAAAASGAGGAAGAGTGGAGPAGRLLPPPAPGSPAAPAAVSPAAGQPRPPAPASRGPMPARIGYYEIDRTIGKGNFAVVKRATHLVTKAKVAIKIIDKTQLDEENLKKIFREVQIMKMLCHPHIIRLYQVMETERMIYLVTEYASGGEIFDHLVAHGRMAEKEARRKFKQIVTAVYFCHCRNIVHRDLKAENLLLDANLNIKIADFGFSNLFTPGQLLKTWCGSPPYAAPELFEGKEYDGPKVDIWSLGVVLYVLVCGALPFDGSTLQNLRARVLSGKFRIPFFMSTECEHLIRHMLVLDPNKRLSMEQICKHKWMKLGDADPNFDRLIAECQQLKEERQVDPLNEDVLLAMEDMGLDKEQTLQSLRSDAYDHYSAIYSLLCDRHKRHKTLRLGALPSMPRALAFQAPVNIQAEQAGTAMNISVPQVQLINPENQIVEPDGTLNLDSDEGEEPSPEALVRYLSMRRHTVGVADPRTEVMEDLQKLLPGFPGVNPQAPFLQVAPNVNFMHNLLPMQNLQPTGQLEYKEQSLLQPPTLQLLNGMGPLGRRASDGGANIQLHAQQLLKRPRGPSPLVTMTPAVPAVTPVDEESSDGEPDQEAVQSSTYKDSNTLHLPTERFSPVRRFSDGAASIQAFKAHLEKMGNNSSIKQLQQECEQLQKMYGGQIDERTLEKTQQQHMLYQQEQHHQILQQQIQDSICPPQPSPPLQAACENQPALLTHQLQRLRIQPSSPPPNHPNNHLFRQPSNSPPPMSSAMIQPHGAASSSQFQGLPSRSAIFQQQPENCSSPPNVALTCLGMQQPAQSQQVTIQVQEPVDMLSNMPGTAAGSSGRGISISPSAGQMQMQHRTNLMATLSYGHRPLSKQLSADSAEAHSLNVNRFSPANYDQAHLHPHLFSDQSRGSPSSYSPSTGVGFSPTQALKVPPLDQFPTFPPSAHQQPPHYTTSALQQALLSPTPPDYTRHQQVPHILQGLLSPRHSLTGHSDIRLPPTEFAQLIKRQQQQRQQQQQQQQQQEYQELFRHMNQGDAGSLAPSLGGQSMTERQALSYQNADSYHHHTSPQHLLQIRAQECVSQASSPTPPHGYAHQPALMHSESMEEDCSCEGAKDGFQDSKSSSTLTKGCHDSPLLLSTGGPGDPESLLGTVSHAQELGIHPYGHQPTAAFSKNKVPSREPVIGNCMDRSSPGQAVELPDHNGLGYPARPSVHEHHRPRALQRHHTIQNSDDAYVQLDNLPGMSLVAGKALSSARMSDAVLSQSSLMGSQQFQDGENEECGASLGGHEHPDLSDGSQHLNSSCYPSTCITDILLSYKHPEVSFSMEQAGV

[6] = molecular target: Serine/threonine-protein kinase WNK3 (Homo sapiens) (UniProt Q9BYP7); assay: Inhibition of WNK3 (unknown origin) assessed as residual activity at 100 nM by KINOMEscan analysis relative to control
Sequence of Serine/threonine-protein kinase WNK3 (Homo sapiens) (Q9BYP7 whole entry): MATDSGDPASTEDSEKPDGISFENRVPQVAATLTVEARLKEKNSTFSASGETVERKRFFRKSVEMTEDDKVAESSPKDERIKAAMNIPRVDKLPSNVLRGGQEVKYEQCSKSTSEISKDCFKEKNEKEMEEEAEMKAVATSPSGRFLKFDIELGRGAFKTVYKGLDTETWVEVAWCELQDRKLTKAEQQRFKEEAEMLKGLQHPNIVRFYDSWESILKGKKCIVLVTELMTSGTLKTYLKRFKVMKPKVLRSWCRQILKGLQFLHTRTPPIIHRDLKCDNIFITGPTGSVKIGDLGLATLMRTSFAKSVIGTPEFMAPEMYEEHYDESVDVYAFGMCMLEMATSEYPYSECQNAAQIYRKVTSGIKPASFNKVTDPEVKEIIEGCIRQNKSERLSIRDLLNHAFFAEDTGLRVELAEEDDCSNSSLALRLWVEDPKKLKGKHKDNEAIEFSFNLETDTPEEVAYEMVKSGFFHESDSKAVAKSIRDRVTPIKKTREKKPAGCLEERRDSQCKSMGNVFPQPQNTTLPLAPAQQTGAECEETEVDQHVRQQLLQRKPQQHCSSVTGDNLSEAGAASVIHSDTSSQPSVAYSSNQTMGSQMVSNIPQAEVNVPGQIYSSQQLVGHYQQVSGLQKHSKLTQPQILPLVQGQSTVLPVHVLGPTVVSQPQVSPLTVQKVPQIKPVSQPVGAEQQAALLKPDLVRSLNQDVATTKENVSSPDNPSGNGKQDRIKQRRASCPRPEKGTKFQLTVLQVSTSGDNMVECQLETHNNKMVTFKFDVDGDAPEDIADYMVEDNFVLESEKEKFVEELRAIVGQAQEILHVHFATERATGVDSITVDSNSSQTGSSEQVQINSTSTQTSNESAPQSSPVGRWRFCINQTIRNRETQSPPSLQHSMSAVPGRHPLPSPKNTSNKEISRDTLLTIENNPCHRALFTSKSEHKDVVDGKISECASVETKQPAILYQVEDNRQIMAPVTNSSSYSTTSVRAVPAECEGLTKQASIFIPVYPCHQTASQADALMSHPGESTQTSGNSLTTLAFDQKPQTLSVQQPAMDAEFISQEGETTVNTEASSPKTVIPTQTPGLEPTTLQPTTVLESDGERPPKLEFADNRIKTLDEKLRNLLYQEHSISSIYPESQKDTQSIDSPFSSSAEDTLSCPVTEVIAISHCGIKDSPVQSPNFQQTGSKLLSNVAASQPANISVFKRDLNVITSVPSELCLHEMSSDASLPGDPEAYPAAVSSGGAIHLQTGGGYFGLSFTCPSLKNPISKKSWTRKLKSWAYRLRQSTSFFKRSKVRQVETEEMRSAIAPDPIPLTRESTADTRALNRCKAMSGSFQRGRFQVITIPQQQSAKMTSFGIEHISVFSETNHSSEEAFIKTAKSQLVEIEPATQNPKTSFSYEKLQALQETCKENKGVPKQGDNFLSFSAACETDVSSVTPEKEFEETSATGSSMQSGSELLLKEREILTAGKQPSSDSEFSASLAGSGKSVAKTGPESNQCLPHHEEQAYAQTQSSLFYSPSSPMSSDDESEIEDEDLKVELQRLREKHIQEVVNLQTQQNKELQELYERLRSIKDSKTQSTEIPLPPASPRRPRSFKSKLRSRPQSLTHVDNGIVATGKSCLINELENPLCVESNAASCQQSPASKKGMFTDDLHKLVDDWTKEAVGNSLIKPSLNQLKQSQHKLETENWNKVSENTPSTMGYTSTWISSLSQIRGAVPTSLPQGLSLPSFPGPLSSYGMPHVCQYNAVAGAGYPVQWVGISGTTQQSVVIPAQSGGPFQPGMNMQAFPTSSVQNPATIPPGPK

`COc1cc2ncnc(N[C@H](C)c3cccc4ccccc34)c2cc1OC` gave an Activity [1] of 97%, an Activity [2] of 77% and an Activity [3] of 100%. The Activity [4] was 96%, the Activity [5] was 94% and the Activity [6] was 89%.
